The compounds below were run against glutathione S-transferase (Schistosoma japonicum GST tag binding GSH beads) (assay: GST–glutathione bead interaction interference profiling – biochemical, multiplex beads, flow cytometry, profiling panel (AID 1769;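 also: target is a GST and green fluorescent protein fusion captured on glutathione beads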)). Conditions: flow cytometry fluorescence.

SMILES | EC50 [µM]
COc1cc2[nH]c(=S)nc(NCCc3ccc(C)cc3)c2cc1OC | 0.334
CCNC(=S)N=Nc1c(O)[nH]c2ccc([N+](=O)[O-])cc12 | 1.93
Cc1ccc(NC(=O)Nc2ccnc(-c3cccnc3)n2)cc1 | 2.07
Cc1c(CCC(=O)O)c(=O)oc2cc3occ(-c4ccc(F)cc4)c3cc12 | 70.5
COCCCNc1nc(=S)[nH]c2cc(OC)c(OC)cc12 | 15.2
O=C(Nc1cccc(Cl)c1)Nc1ccnc(-c2cccnc2)n1 | 0.499
Cc1cc(=O)[nH]c2c(N=Nc3ccc(O)cc3)c(N)nn12 | 1.4
O=c1c2c(-c3ccccc3)csc2nc2c3ccccc3c(NCCN3CCOCC3)nn12 | 1.84
Cc1cccc(S(=O)(=O)c2c(N)n(/N=C/c3cccnc3)c3nc4ccccc4nc23)c1 | 3.42
COc1ccccc1Nc1nc(-c2c(C)nc3ncccn23)cs1 | 12.2
O=C(CSc1ccc2nnc(-c3cccc(F)c3)n2n1)N1CCCc2ccccc21 | 0.16
O=c1[nH]c(N/N=C/c2ccc(O)cc2)nc2ccccc12 | 7.68
COc1ccc(/C=N/n2c(N)c(S(=O)(=O)c3cccs3)c3nc4ccccc4nc32)cc1OC | 0.612
CN(/N=C/c1cccnc1)C1=NS(=O)(=O)c2ccccc21 | 5.05
COc1cc2nc(=S)n(CCCN3CCOCC3)c(N)c2cc1OC | 11
CCCCNc1nc(=S)[nH]c2cc(OC)c(OC)cc12 | 10.9
O=C(Oc1c(Br)cc(C(=S)N2CCOCC2)cc1Br)c1ccc(Cl)cc1 | 2.97
COc1cc(OC)c(-c2c3cc(O)c(=O)cc-3oc3cc(O)c(O)cc23)cc1OC | 0.258
O=C(OCC1O[C@@H](OC(=O)c2cc(O)c(O)c(O)c2)[C@@H](OC(=O)c2cc(O)c(O)c(O)c2)[C@@H](OC(=O)c2cc(O)c(O)c(O)c2)[C@@H]1OC(=O)c1cc(O)c(O)c(O)c1)c1cc(O)c(O)c(O)c1 (stereo partly drawn) | 0.951
CCn1cc(C(=O)O)c(=O)c2cc(F)c(N/N=C/c3ccccc3)cc21 | 3.88
Cn1c(O)c(C2=c3ccccc3=NC2=O)[nH]c1=S | 13.4
CC(=O)Oc1ccc2c(c1)Oc1cc(OC(C)=O)ccc1C21OC(=O)c2ccccc21 | 1.51
O=C(Nc1cc(S(=O)(=O)Nc2ccccc2Cl)ccc1O)c1sc2cc(Cl)ccc2c1Cl | 3.66
CCC1CCCCN1S(=O)(=O)c1ccc(NC(=O)CSc2ncccc2C(=O)O)cc1 (stereo not drawn) | 10.7
COc1ccc(S(=O)(=O)N2CCOCC2)cc1NC(=O)COc1cccnc1[N+](=O)[O-] | 64
COc1ccc(C(=O)Nc2nc3ccccc3[nH]2)cc1S(=O)(=O)N1CCOCC1 | 32.7

SMILES | EC50 [µM]
O=C(O)c1cc(-c2ccc(/C=C3\NC(=O)N(c4ccc(Cl)cc4)C3=O)o2)ccc1Cl | 11.8
CCN1/C(=C/C=C/c2oc3ccc4ccccc4c3[n+]2CC)Oc2ccc3ccccc3c21 | 0.223
COc1cc2c(cc1OC)-c1cc(NC3CCCCCC3)nc(=O)n1CC2 | 21
COc1ccc(OC)c(Nc2nc(-c3sc(N)nc3C)cs2)c1 | 26.9
COc1ccc(-c2cc(-c3ccc(O)cc3)nc(N)c2C#N)cc1OC | 11.5
CCCc1nc2oc3c(=O)[nH]cnc3c2c2c1CCCC2 | 2.05
CCOc1ccccc1C(=O)Nc1cccc(-c2ccc3nncn3n2)c1 | 1.96
O=c1c2ccccc2nc2c3ccccc3c(NCCO)nn12 | 3.55
COc1ccccc1CNC(=O)c1c(N)n(CCCN2CCOCC2)c2nc3ccccc3nc12 | 4.43
CN1CCN(S(=O)(=O)c2cccc(C(=O)Nc3sc4c(c3C(N)=O)CCCC4)c2)CC1 | 19.8
O=C(Nc1cccc(-c2nnc(-c3ccco3)o2)c1)c1ccccc1 | 40.8
Cn1c(SCCOc2ccccc2F)nc2ccccc2c1=O | 4.72
CN(/N=C/c1ccco1)C1=NS(=O)(=O)c2ccccc21 | 2.54
COc1cc(/C=N/NC(=O)CN(Cc2ccccc2)S(=O)(=O)c2ccc3c(c2)OCCO3)ccc1O | 20.3
Fc1cccc(Nc2ncnc3[nH]ncc23)c1 | 45.1
Oc1ccc(/C=N/NC(=S)N/N=C/c2ccc(O)cc2)cc1 | 13.4
Cc1nnc2ccc(-c3cccc(NC(=O)c4ccco4)c3)nn12 | 7.84
NC(=O)c1cc2nc(-c3ccco3)cc(C(F)(F)F)n2n1 | 15.9
CN(/N=C/C=C/c1ccccc1)C1=NS(=O)(=O)c2ccccc21 | 6.02
COc1cc(NC(=O)c2cccs2)c(OC)cc1NC(=O)CCC(=O)Nc1ccc2ncccc2c1 | 0.481
CCOC(=O)c1cc2c(N)c(C(=O)c3ccc(Br)cc3)sc2[nH]c1=O | 0.574
Cc1ccc2c(c1)c1nnc(SCC(=O)N3CCCc4ccccc43)nc1n2CC(=O)O | 69.6
COc1ccc(-c2csc(NC(=S)NC(=O)c3cccs3)n2)cc1OC | 1.33
COC(=O)COc1ccc(/C=N/NC(=O)c2ccc(N(Cc3ccccc3)S(C)(=O)=O)cc2)cc1 | 4.09
COc1cccc2cc(-c3ccnc(=S)[nH]3)oc12 | 28.8
Nc1nc2c(c(=O)[nH]1)C(c1cccc3ccccc13)C1=C(N2)c2ccccc2C1=O (stereo not drawn) | 2.59

SMILES | EC50 [µM]
CC(=O)N1C(=O)/C(=C2\SC(=S)N(NC(=O)c3ccc(O)cc3)C2=O)c2ccccc21 | 4.13
N#Cc1ccc2ccn(CC(=O)N3CCCc4ccccc43)c2c1 | 2.4
O=[N+]([O-])c1ccc(/C=C/C2=NN(c3ccccc3)C(c3ccco3)C2)cc1 (stereo not drawn) | 1.34
O=C(NCc1cccnc1)c1cccn2c(=O)c3sccc3nc12 | 25.2
CCOc1cc(/C=N/NC(=O)c2cc(-c3cccnc3)nc3ccccc23)ccc1O | 8.65
Cc1ccc(Nc2nc(-c3c(C)nc4ncccn34)cs2)cc1 | 34.8
N#Cc1c(Nc2ccccc2)c(/C=N/N=C/c2ccccc2)c[nH]c1=O | 4.1
COc1cc2ccccc2cc1C(=O)NC(=S)Nc1cccc(C(=O)O)c1 | 9.3
O=c1c2ccccc2nc2c3ccccc3c(Cl)nn12 | 2.04
O=C(C[n+]1cccc2ccccc21)c1ccc(NC(=O)c2ccccc2)cc1 | 10.2
Oc1ccc2ccccc2c1/C=N/Nc1nnc(-c2ncc[nH]2)c2ccccc12 | 1.96
CCN(CC)c1ccc(/C=C/C(=O)c2ccc(Br)cc2)cc1 | 11.2
O=C(CSc1ccc2nnc(-c3ccccn3)n2n1)Nc1nccs1 | 13
COc1cc2[nH]c(=S)nc(NC3CCCCCC3)c2cc1OC | 1.32
N#Cc1c2nc3ccccc3nc2n2cc(NC(=O)c3ccc(F)cc3)ccc12 | 0.95
CN(C)S(=O)(=O)c1ccc(C(=O)NNc2nc(-c3ccccc3)c3cc(Br)ccc3n2)cc1 | 4.9
COc1ccc(-c2c3c(nc4sc5c(=O)[nH]c(C)nc5c24)CCC3)cc1 | 3.74
COc1cc2[nH]c(=S)nc(Nc3ccc(NC(C)=O)cc3)c2cc1OC | 2.91
COc1ccc(/C=C(/C#N)C(=O)Nc2ccc(O)cc2)cc1C(=O)O | 16.4
Oc1c(CN2CCOCC2)ccc2ccccc12 | 24.5
CCN(CC)c1ccc(/C=C(\C#N)C(=O)c2ccc(Br)cc2)cc1 | 11.1
O=C(O)c1cccc(-n2cccc2/C=C2/NC(=O)N(c3ccc(Cl)cc3)C2=O)c1 | 2.25
CC(C)c1cc(NCc2ccccn2)n2c(nc3ccccc32)c1C#N | 2.82
Cc1sc2nc3c(SC(C)C(=O)O)cc(C(=O)c4ccccc4O)cn3c(=O)c2c1C (stereo not drawn) | 92.7
CCCCn1c(O)c(/C=C/C=C/C=Nc2ccccc2)sc1=S | 0.576
CCOc1cccc(Nc2cc3n(c(=O)n2)CCc2cc(OC)c(OC)cc2-3)c1 | 64.5

— PubChem BioAssay AID1769 (NMMLSC, 2009)
